Laboratory results: patent publication US10428083B2, “Heterocyclylmethyl-thienouracile as antagonists of the adenosine-A2B-receptor” (BAYER PHARMA AKTIENGESELLSCHAFT, priority 2015, dated 2019)
pIC50: −log10 of the molar value.

Biological target: human adenosine A2b receptor (Homo sapiens (Human), UniProt P29275)
Assay: Cellular in vitro reporter gene test for A2b receptor activity (CHO-K1, CRE-luciferase, NECA stimulation)
Type: cell-based
Settings: recombinant CHO-K1 cell line, CRE-luciferase reporter, antagonism of EC50 concentration of NECA; in some cases means of several determinations, rounded to two significant figures; read-out: A2b receptor IC50
Procedure: B-1. Cellular In Vitro Tests for Determining A2b Receptor Activity and Adenosine Receptor Selectivity
In the case of the A2a and A2b cell lines, this is a minimal promoter having a plurality of cAMP-responsive elements (CRE). Stimulation of the Gs-coupled A2b or A2a receptors by NECA ultimately leads, via formation of cAMP, to CRE-dependent induction of luciferase expression, which is detected 3 hours after the start of the incubation with NECA using a detection solution in a suitable luminometer. For testing the antagonists, initially, in a pre-experiment, the concentration of NECA which, at the test day in question, results in half-maximum stimulation of luciferase expression (EC50 concentration) is determined. By joint incubation of this EC50 concentration of NECA with the substances to be tested, it is possible to determine their antagonistic activity.

Chain of human adenosine A2b receptor (P29275 whole entry): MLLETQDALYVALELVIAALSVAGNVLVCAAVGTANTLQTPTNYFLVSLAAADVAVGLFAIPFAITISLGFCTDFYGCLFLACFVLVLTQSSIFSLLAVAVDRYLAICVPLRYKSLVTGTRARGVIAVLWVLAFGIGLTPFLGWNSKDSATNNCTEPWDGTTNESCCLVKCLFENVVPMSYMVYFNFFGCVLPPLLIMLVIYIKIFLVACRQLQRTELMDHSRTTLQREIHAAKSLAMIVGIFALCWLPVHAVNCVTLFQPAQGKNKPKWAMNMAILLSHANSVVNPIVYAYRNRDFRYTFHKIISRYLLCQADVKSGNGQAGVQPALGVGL

Row | SMILES | pIC50
1 | COCCn1c(=O)n(C(C)C(F)(F)F)c(=O)c2c(C)c(CN3CCNC3=NC#N)sc21 (single isomer, unassigned) [Example 511, [1-{[1-(2-Methoxyethyl)-5-methyl-2,4-dioxo-3-(1,1,1-trifluoropropan-2-yl)-1,2,3,4-tetrahydrothieno[2,3-d]pyrimidin-6-yl]methyl}imidazolidin-2-ylidene]cyanamide] | 6.96
2 | COCCn1c(=O)n(CCc2ccccc2)c(=O)c2c(C(F)(F)F)c(CN3CCCC3=O)sc21 [Example 5, 1-(2-Methoxyethyl)-6-[(2-oxopyrrolidin-1-yl)methyl]-3-(2-phenylethyl)-5-(trifluoromethyl)thieno[2,3-d]pyrimidine-2,4(1H,3H)-dione] | 8.08
3 | Cc1c(CN2CCNC(=O)C2=O)sc2c1c(=O)n(C(C)C)c(=O)n2CC1CCO1 (single isomer, unassigned) [Example 398, 6-[(2,3-Dioxopiperazin-1-yl)methyl]-3-isopropyl-5-methyl-1-(oxetan-2-ylmethyl)thieno[2,3-d]pyrimidine-2,4(1H,3H)-dione] | 6.62
4 | Cc1c(Cn2[nH]ccc2=O)sc2c1c(=O)n(C(C)C)c(=O)n2CCC(F)(F)F [Example 132, 3-Isopropyl-5-methyl-6-[(5-oxo-2,5-dihydro-1H-pyrazol-1-yl)methyl]-1-(3,3,3-trifluoropropyl)thieno[2,3-d]pyrimidine-2,4(1H,3H)-dione] | 7.70
5 | CCn1c(=O)c2c(C)c(CN3CCNC3=S)sc2n(CC2CCCO2)c1=O (single isomer, unassigned) [Example 140, 3-Ethyl-5-methyl-1-(tetrahydrofuran-2-ylmethyl)-6-[(2-thioxoimidazolidin-1-yl)methyl]thieno[2,3-d]pyrimidine-2,4(1H,3H)-dione] | 8.32
6 | Cc1c(CN2CCN(C(C)C)C2=S)sc2c1c(=O)n(CC(C)C)c(=O)n2CCCF [Example 304, 1-(3-Fluoropropyl)-3-isobutyl-6-[(3-isopropyl-2-thioxoimidazolidin-1-yl)methyl]-5-methylthieno[2,3-d]pyrimidine-2,4(1H,3H)-dione] | 7.14
7 | COC(C)Cn1c(=O)c2c(C)c(CN3CCNC3=O)sc2n(CCC(F)(F)F)c1=O (single isomer, unassigned) [Example 413, 3-(2-Methoxypropyl)-5-methyl-6-[(2-oxoimidazolidin-1-yl)methyl]-1-(3,3,3-trifluoropropyl)thieno[2,3-d]pyrimidine-2,4(1H,3H)-dione] | 8.34
8 | CCn1c(=O)c2c(C)c(CN3CC(NC(=O)OC(C)(C)C)CC3=O)sc2n(CCC(F)(F)F)c1=O (racemic) [Example 8, tert-Butyl (1-{[3-ethyl-5-methyl-2,4-dioxo-1-(3,3,3-trifluoropropyl)-1,2,3,4-tetrahydrothieno[2,3-d]pyrimidin-6-yl]methyl}-5-oxopyrrolidin-3-yl)carbamate (racemate)] | 6.92
9 | CCOCCn1c(=O)n(CC)c(=O)c2c(C)c(CN3CCNC3=O)sc21 [Example 60, 1-(2-Ethoxyethyl)-3-ethyl-5-methyl-6-[(2-oxoimidazolidin-1-yl)methyl]thieno[2,3-d]pyrimidine-2,4(1H,3H)-dione] | 7.89
10 | COCCn1c(=O)c2c(C)c(CN3CCNC(=O)C3=O)sc2n(CC2CCO2)c1=O (racemic) [Example 400, 6-[(2,3-Dioxopiperazin-1-yl)methyl]-3-(2-methoxyethyl)-5-methyl-1-(oxetan-2-ylmethyl)thieno[2,3-d]pyrimidine-2,4(1H,3H)-dione] | 6.49
11 | CCn1c(=O)c2c(C)c(Cn3[nH]ccc3=O)sc2n(CCOC)c1=O [Example 128, 3-Ethyl-1-(2-methoxyethyl)-5-methyl-6-[(5-oxo-2,5-dihydro-1H-pyrazol-1-yl)methyl]thieno[2,3-d]pyrimidine-2,4(1H,3H)-dione] | 8.33
12 | CCn1c(=O)c2c(C)c(CN3CCNC3=O)sc2n(CF)c1=O [Example 307, 3-Ethyl-1-(fluoromethyl)-5-methyl-6-[(2-oxoimidazolidin-1-yl)methyl]thieno[2,3-d]pyrimidine-2,4(1H,3H)-dione] | 8.09
13 | [2H]C([2H])(c1sc2c(c1C)c(=O)n(CC(F)(F)F)c(=O)n2CCOC)N1CCNC1=NC#N [Example 513, [1-{[1-(2-Methoxyethyl)-5-methyl-2,4-dioxo-3-(2,2,2-trifluoroethyl)-1,2,3,4-tetrahydrothieno[2,3-d]pyrimidin-6-yl](dideutero)methyl}imidazolidin-2-ylidene]cyanamide] | 8.08
14 | CCn1c(=O)c2c(C)c(CN3CCNC3=O)sc2n(CCCF)c1=O [Example 51, 3-Ethyl-1-(3-fluoropropyl)-5-methyl-6-[(2-oxoimidazolidin-1-yl)methyl]thieno[2,3-d]pyrimidine-2,4(1H,3H)-dione] | 7.92
15 | Cc1c(CN2CCNC2=O)sc2c1c(=O)n(CC(C)C)c(=O)n2CC1CCO1 (racemic) [Example 194, 3-Isobutyl-5-methyl-1-(oxetan-2-ylmethyl)-6-[(2-oxoimidazolidin-1-yl)methyl]thieno[2,3-d]pyrimidine-2,4(1H,3H)-dione] | 7.82
16 | Cc1c(CN2CCNC2=O)sc2c1c(=O)n(C(C)C)c(=O)n2CCCF [Example 314, 1-(3-Fluoropropyl)-3-isopropyl-5-methyl-6-[(2-oxoimidazolidin-1-yl)methyl]thieno[2,3-d]pyrimidine-2,4(1H,3H)-dione] | 8.33
17 | Cc1c(Cn2cc[nH]c2=O)sc2c1c(=O)n(C(C)C)c(=O)n2CC1CCCO1 (racemic) [Example 247, 3-Isopropyl-5-methyl-6-[(2-oxo-2,3-dihydro-1H-imidazol-1-yl)methyl]-1-(tetrahydrofuran-2-ylmethyl)thieno[2,3-d]pyrimidine-2,4(1H,3H)-dione] | 8.05
18 | Cc1c(Cn2cc[nH]c2=O)sc2c1c(=O)n(CC(C)(C)C)c(=O)n2CC1CCCO1 (racemic) [Example 507, 3-(2,2-Dimethylpropyl)-5-methyl-6-[(2-oxo-2,3-dihydro-1H-imidazol-1-yl)methyl]-1-(tetrahydrofuran-2-ylmethyl)thieno[2,3-d]pyrimidine-2,4(1H,3H)-dione] | 7.55
19 | Cc1c(CN2CCNC2=O)sc2c1c(=O)n(C(C)C)c(=O)n2CC1COC1 [Example 189, 3-Isopropyl-5-methyl-1-(oxetan-3-ylmethyl)-6-[(2-oxoimidazolidin-1-yl)methyl]thieno[2,3-d]pyrimidine-2,4(1H,3H)-dione] | 7.77
20 | Cc1c(Cn2nc[nH]c2=O)sc2c1c(=O)n(CC(F)(F)F)c(=O)n2CC1CCCO1 (single isomer, unassigned) [Example 436, 5-Methyl-6-[(5-oxo-4,5-dihydro-1H-1,2,4-triazol-1-yl)methyl]-1-(tetrahydrofuran-2-ylmethyl)-3-(2,2,2-trifluoroethyl)thieno[2,3-d]pyrimidine-2,4(1H,3H)-dione] | 7.19
21 | COCCn1c(=O)c2c(C)c(CN3CCNC3=S)sc2n(CCOC)c1=O [Example 168, 1,3-Bis(2-methoxyethyl)-5-methyl-6-[(2-thioxoimidazolidin-1-yl)methyl]thieno[2,3-d]pyrimidine-2,4(1H,3H)-dione] | 7.82
22 | Cc1c(Cn2nc[nH]c2=O)sc2c1c(=O)n(C(C)C)c(=O)n2CC1CCCO1 (single isomer, unassigned) [Example 425, 3-Isopropyl-5-methyl-6-[(5-oxo-4,5-dihydro-1H-1,2,4-triazol-1-yl)methyl]-1-(tetrahydrofuran-2-ylmethyl)thieno[2,3-d]pyrimidine-2,4(1H,3H)-dione] | 7.38
